Test results published in patent publication US11696937B2, “Glycopeptide compounds having activity of resisting drug-resistant bacteria, and preparation method and application thereof” (priority 2018, dated 2023).
Converted amounts (≈) assume the structure as drawn.

Assays:
ATCC43300 (MRSA) = test: In vitro antibacterial activity (MIC) against MRSA; assay type: cell-based, Methicillin-resistant Staphylococcus aureus; details: for MIC ATCC43300 (MRSA): MRSA strain ATCC43300, method of Pharmacopoeia of the People's Republic of China (2015 edition)
Protocol: (§1) An antibacterial activity of the compounds in Table 1 is determined in vitro, and a minimum inhibitory concentration (MIC) is read. The determination method refers to the method of the Pharmacopoeia of the People's Republic of China (2015 edition). The MRSA detection strain is purchased from ATCC, and the VRE detection strain is from the clinically isolated drug-resistant strain 07-W3-45 from Shanghai Huashan Hospital. Known antibiotic oritavancin (phosphate) is used for a reference drug.

[1] = system: Clinical isolates 07-W3-45 (VRE); test: In vitro antibacterial activity (MIC) against VRE; assay type: cell-based, Vancomycin-resistant Enterococcus; details: for MIC Clinical isolates 07-W3-45 (VRE): clinically isolated drug-resistant strain 07-W3-45 from Shanghai Huashan Hospital
Protocol: as §1

wild AB zebrafish = test: Zebrafish toxicity test; assay type: in vivo; details: intravenous injection, 72 hours of treatment, samples in phosphate form
Protocol: A zebrafish toxicity test of the compounds in Table 1 is also tested. Randomly select wild AB zebrafish in a six-well plate, and inject each test sample at a dose of 50, 100, 150, 200, and 250 ng/tail intravenously. At the same time, a normal control group and a solvent control group (aqueous phosphoric acid) are set; During this experiment, the death of zebrafish is observed and recorded every day and the dead fish are removed. After 72 hours of treatment, the death of zebrafish is counted. Calculate the LD50 of each test product to zebrafish.
All samples are tested for zebrafish toxicity in phosphate form.

Compound | MIC ATCC43300 (MRSA) (ATCC43300 (MRSA)) [µg/mL] | MIC Clinical isolates 07-W3-45 (VRE) [1] [µg/mL] | Zebrafish LD50 (wild AB zebrafish) [ng/tail] | MIC (ATCC43300 (MRSA); Staphylococcus aureus, read-out: MIC ATCC43300 (MRSA)) [µg/mL] | MIC ([1]; Enterococcus, VRE, read-out: MIC Clinical isolates 07-W3-45 (VRE)) [µg/mL]
CNC(CC(C)C)C(=O)NC1C(=O)NC(CC(N)=O)C(=O)NC2C(=O)NC3C(=O)NC(C(=O)NC(C(=O)O)c4cc(O)cc(O)c4-c4cc3ccc4O)C(OC3CC(C)(N)C(O)C(C)O3)c3ccc(c(Cl)c3)Oc3cc2cc(c3OC2OC(CO)C(O)C(O)C2OC2CC(C)(NCc3ccc(NCCc4ccccc4)cc3)C(O)C(C)O2)Oc2ccc(cc2Cl)C1O (stereo not drawn) [Compound 20] | 0.5 (≈ 0.278 µM) | 2 (≈ 1.11 µM) | 189 |  | 
CNC(CC(C)C)C(=O)NC1C(=O)NC(CC(N)=O)C(=O)NC2C(=O)NC3C(=O)NC(C(=O)NC(C(=O)O)c4cc(O)cc(O)c4-c4cc3ccc4O)C(OC3CC(C)(N)C(O)C(C)O3)c3ccc(c(Cl)c3)Oc3cc2cc(c3OC2OC(CO)C(O)C(O)C2OC2CC(C)(NCc3ccc(NCCc4ccc(Cl)cc4)cc3)C(O)C(C)O2)Oc2ccc(cc2Cl)C1O (stereo not drawn) [Compound 21] | 0.016 (≈ 0.00871 µM) | 0.5 (≈ 0.272 µM) | 102 |  | 
CNC(CC(C)C)C(=O)NC1C(=O)NC(CC(N)=O)C(=O)NC2C(=O)NC3C(=O)NC(C(=O)NC(C(=O)O)c4cc(O)cc(O)c4-c4cc3ccc4O)C(OC3CC(C)(N)C(O)C(C)O3)c3ccc(c(Cl)c3)Oc3cc2cc(c3OC2OC(CO)C(O)C(O)C2OC2CC(C)(NCc3ccc(NCCc4ccc(C(F)(F)F)cc4)cc3)C(O)C(C)O2)Oc2ccc(cc2Cl)C1O (stereo not drawn) [Compound 22] | 0.032 (≈ 0.0171 µM) | 0.25 (≈ 0.134 µM) | 142 |  | 
CNC(CC(C)C)C(=O)NC1C(=O)NC(CC(N)=O)C(=O)NC2C(=O)NC3C(=O)NC(C(=O)NC(C(=O)O)c4cc(O)cc(O)c4-c4cc3ccc4O)C(OC3CC(C)(N)C(O)C(C)O3)c3ccc(c(Cl)c3)Oc3cc2cc(c3OC2OC(CO)C(O)C(O)C2OC2CC(C)(NCc3ccc(NCCc4ccc(OC)cc4)cc3)C(O)C(C)O2)Oc2ccc(cc2Cl)C1O (stereo not drawn) [Compound 23] | 0.5 (≈ 0.273 µM) | 1 (≈ 0.546 µM) | 192 |  | 
CNC(CC(C)C)C(=O)NC1C(=O)NC(CC(N)=O)C(=O)NC2C(=O)NC3C(=O)NC(C(=O)NC(C(=O)O)c4cc(O)cc(O)c4-c4cc3ccc4O)C(OC3CC(C)(N)C(O)C(C)O3)c3ccc(c(Cl)c3)Oc3cc2cc(c3OC2OC(CO)C(O)C(O)C2OC2CC(C)(NCc3ccc(NCCCc4ccccc4)cc3)C(O)C(C)O2)Oc2ccc(cc2Cl)C1O (stereo not drawn) [Compound 24] | 0.5 (≈ 0.275 µM) | 1 (≈ 0.551 µM) | 153 |  | 
CNC(CC(C)C)C(=O)NC1C(=O)NC(CC(N)=O)C(=O)NC2C(=O)NC3C(=O)NC(C(=O)NC(C(=O)O)c4cc(O)cc(O)c4-c4cc3ccc4O)C(OC3CC(C)(N)C(O)C(C)O3)c3ccc(c(Cl)c3)Oc3cc2cc(c3OC2OC(CO)C(O)C(O)C2OC2CC(C)(NCc3ccc(NCCCc4ccc(Cl)cc4)cc3)C(O)C(C)O2)Oc2ccc(cc2Cl)C1O (stereo not drawn) [Compound 25] | 0.064 (≈ 0.0346 µM) | 0.25 (≈ 0.135 µM) | 97 |  | 
CN[C@H](CC(C)C)C(=O)N[C@H]1C(=O)N[C@@H](CC(N)=O)C(=O)N[C@H]2C(=O)N[C@H]3C(=O)N[C@H](C(=O)N[C@H](C(=O)O)c4cc(O)cc(O)c4-c4cc3ccc4O)[C@H](O[C@H]3C[C@](C)(N)[C@@H](O)[C@H](C)O3)c3ccc(c(Cl)c3)Oc3cc2cc(c3O[C@@H]2O[C@H](CO)[C@@H](O)[C@H](O)[C@H]2O[C@H]2C[C@](C)(NCc3ccc(-c4ccc(Cl)cc4)cc3)[C@@H](O)[C@H](C)O2)Oc2ccc(cc2Cl)[C@H]1O [Orivancin, oritavancin, reference compound] |  |  | 89.4 | 0.5 (≈ 0.279 µM) | 2 (≈ 1.12 µM)
